# Experimental data published in publication PMC8966651, “PKPD Modeling of the Inoculum Effect of Acinetobacter baumannii on Polymyxin B in vivo” (Frontiers in Pharmacology, 2022).
# Structures can show the parent of a compound that is named as a salt. Bridge positions count the residues as written; N and C are the ends. Square brackets hold non-standard residues; d marks the D form. Peptide text beside a SMILES is read from it. * marks the point of attachment. X1 = CC[C@H](C)CCCCC(=O)*; Dab = NCC[C@H](N)C(=O)O
# What was measured:
# [1] = SC, highest dose 32 mg/kg; ref Landersdorfer et al., 2018; cited from earlier work
# Procedure: These new study results can be compared with those previously obtained in relatively similar conditions, at least from PK standpoint ([Landersdorfer et al., 2018]). In both studies PMB was administered subcutaneously to neutropenic mice infected with K. pneumoniae ([Landersdorfer et al., 2018]) or A. baumannii, leading to saturable absorption rate. However although Landersdorfer et al. used a model with parallel linear and saturable absorption, an Emax model was sufficient to provide satisfactory fit of our data. Noticeably, while this nonlinear absorption was important to consider for PK and ...
# A. baumannii (CS01) = assay: Neutropenic mouse thigh infection model, bacterial counts after PMB; format: in vivo, Acinetobacter baumannii
# Procedure: A clinical strain of A. baumannii (CS01), isolated from a patient with a meningitis (Seville, Spain) before treatment with CST, was used during this study ([López-Rojas et al., 2013]). Before each experiment, the strain was cultured in 5 ml of cation adjusted Muller-Hinton broth II (MHB) (Biomérieux, Marcy-l’Etoile, France) and incubated overnight at 37 ± 2°C with constant shaking (150–170 rpm). This overnight suspension was diluted 1:50 in MHB and was incubated with constant shaking at 35°C during 2 h until an OD600nm of 0.26 was achieved (Ultrospec10, Biochrom Ltd., Cambridge, United Kingdom), corresponding to a bacterial count of 10^8 CFU/ml in exponential growth phase. The bacterial suspension was centrifuged (3,000 rpm, 6 min), broth was removed and replaced by the same volume of sterile saline solution. This suspension was then diluted to obtain inocula of 10^7 and 10^6 CFU/ml. Samples of the inoculation solutions were serially diluted on saline, plated on Muller-Hinton agar plates (Biomérieux, Marcy-l’Etoile, France) and incubated overnight at 37°C.
# Animal experiments were carried out according to the EC Directive 2010/63/EU. They were approved by the local ethics committee (COMETHEA) and registered by the French Ministry of Higher Education and Research (approval numbers: 2019022216097190 and 2017072415099072). Five-week-old male Swiss RjOrl mice (n = 296) weighing 34 ± 2 g (mean ± standard deviation [SD]) were obtained from Janvier Labs (Saint-Berthevin, France). All animals were acclimatized in ventilated racks in a temperature-regulated environment with a 12 h light-dark cycle, with free access to food and water for a minimum of 5 days before the beginning of the experiment. Neutropenia was induced by intraperitoneal administrations of cyclophosphamide at 150 and 100 mg/kg, 4 days and 1 day prior to experimental infection, respectively ([Landersdorfer et al., 2018]). Thigh infection was induced by intramuscular administration of 0.1 ml of a bacterial suspension of 10^6, 10^7 or 10^8 CFU/ml (corresponding to 10^5, 10^6 and 10^7 CFU/thigh, respectively), into one of the posterior thigh muscles. Thus, three groups of mice were distinguished according to the inoculum injected (n = 76, 146 and 74 for 10^5, 10^6 and 10^7 CFU/thigh, respectively) Each group was divided into two subgroups: treated (n = 48, 116 and 45 for 10^5, 10^6 and 10^7 CFU/thigh, respectively) and control mice (n = 28, 30 and 29 for 10^5, 10^6 and 10^7 CFU/thigh, respectively).
# Two hours after bacterial inoculation, mice received either a single subcutaneous administration of PMB (1, 15 or 40 mg/kg for mice infected with 10^6 and 10^7 CFU/thigh, and 15 or 40 mg/kg for mice infected with 10^5 CFU/thigh), or a subcutaneous administration of saline solution (control group).
# Mice (n = 240) were sacrificed at 6 different time points: just prior to the start of the therapy (0 h) and at 2, 4, 6, 8 and 24 h after PMB administration. A total of 3-6 mice were sacrificed at each time point. Thigh muscles were collected and homogenized with 1 ml of sterile saline solution using potters Elvehjem-type tissue grinders (Thermo Fischer Scientific, Illkirch-Graffenstaden, France). Homogenates were serially diluted in saline, plated on Muller-Hinton agar plates and incubated overnight at 37°C. Bacterial colonies were counted and expressed as log10 numbers of CFU/thigh. The lower limit of quantification (LOQ) was set to 800 CFU/ml corresponding to 2.9 log10 CFU/thigh.
compound,measurement,setting,value
"CC[C@H](C)CCCCC(=O)N[C@@H](CCN)C(=O)N[C@H](C(=O)N[C@@H](CCN)C(=O)N[C@H]1CCNC(=O)[C@H]([C@@H](C)O)NC(=O)[C@H](CCN)NC(=O)[C@H](CCN)NC(=O)[C@H](CC(C)C)NC(=O)[C@@H](Cc2ccccc2)NC(=O)[C@H](CCN)NC1=O)[C@@H](C)O [PMB, Polymyxin B sulfate] (X1-[Dab]T[Dab][Dab][Dab][dF]L[Dab][Dab]T; lactam 4-C)",peak concentrations at the highest dose,[1],~20 mg/L
same,efficacy of PMB,"A. baumannii (CS01); 15 mg/kg SC, two highest inocula (10^6 and 10^7 CFU/thigh)",moderate efficacy
same,bacterial load reduction,"A. baumannii (CS01); 24 h after 15 mg/kg PMB SC, inoculum 10^5 CFU/thigh",2.6 ± 1.2 log10 CFU/thigh
same,bacterial load reduction,"A. baumannii (CS01); 24 h after 40 mg/kg PMB SC, inoculum 10^5 CFU/thigh",2.5 ± 2.3 log10 CFU/thigh
same,bacterial load reduction,"A. baumannii (CS01); 24 h after 40 mg/kg PMB SC, inoculum 10^6 CFU/thigh",3.5 ± 0.9 log10 CFU/thigh
same,bacterial load reduction,"A. baumannii (CS01); 24 h after 40 mg/kg PMB SC, inoculum 10^7 CFU/thigh",2.1 ± 1.4 log10 CFU/thigh
same,bacterial counts compared with control group,"A. baumannii (CS01); PMB 1 mg/kg single SC dose, data not shown",no differences in bacterial counts with the control group
